# Data reported in patent US9206219B2, “17-hydroxy-17-pentafluorethyl-estra-4,9(10)-dien-11-aryl derivatives, methods for the production thereof and the use thereof for treating diseases” (Bayer Intellectual Property GmbH, priority 2009, dated 2015).
# Tests used:
# [1] = molecular target: T1, human progesterone receptor A (Homo sapiens, UniProt P06401); experiment: Progesterone receptor-antagonistic action in stably transfected SK-N-MC cells, MMTV-LUC reporter (PR-A); format: cell-based; conditions: antagonistic potency vs 0.1 nmol/l promegestone, 24 hours
# T1 construct: expressed in transfected cells; host or cells: SK-N-MC human neuroblastoma cells, stably transfected with pRChPR-A-neo and pMMTV-LUC
# T1 sequence (P06401 1-769 isoform P06401-2): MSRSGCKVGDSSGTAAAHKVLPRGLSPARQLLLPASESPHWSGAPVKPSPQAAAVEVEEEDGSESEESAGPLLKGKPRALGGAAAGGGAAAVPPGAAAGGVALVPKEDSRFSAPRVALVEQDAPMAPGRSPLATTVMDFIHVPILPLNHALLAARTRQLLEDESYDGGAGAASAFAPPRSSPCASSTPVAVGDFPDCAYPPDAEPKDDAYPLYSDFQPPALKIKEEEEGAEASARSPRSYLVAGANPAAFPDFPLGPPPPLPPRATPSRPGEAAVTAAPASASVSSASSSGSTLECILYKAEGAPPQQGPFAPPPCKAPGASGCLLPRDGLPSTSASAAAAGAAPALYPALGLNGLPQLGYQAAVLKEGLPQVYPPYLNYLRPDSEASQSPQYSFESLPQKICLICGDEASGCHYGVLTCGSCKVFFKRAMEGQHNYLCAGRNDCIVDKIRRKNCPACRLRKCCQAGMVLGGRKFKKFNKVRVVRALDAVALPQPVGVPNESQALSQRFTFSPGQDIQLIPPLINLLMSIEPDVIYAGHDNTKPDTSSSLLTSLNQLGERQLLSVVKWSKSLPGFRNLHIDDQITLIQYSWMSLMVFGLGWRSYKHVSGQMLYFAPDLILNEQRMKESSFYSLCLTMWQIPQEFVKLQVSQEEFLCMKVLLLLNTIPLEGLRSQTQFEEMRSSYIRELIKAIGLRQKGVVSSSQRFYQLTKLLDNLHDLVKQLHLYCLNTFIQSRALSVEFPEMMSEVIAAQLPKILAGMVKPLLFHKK
# Procedure: (§1) Progesterone Receptor-Antagonistic Action in Stable Transfectants of Human Neuroblastoma Cells (SK-N-MC Cells) with the Human Progesterone A or Progesterone B Receptor and an MN-LUC Reporter Construct
# (§2) SK-N-MC cells (human neuroblastoma cells) which have been stably transfected with plasmids expressing the human progesterone receptor B (pRChPR-B-neo) or the human progesterone receptor A (pRChPR-A-neo) and a reporter construct (pMMTV-LUC) were incubated for 24 hours either in the absence (negative control) or in the presence of ascending amounts of the particular test compound (0.01 nmol/l, 0.1 nmol/l, 1 nmol/l, 10 nmol/l, 100 nmol/l and […]), in order to determine the agonistic efficacy. As a positive control of the reporter gene induction, the cells were treated with the synthetic gestagen promegestone (0.01 nmol/l, 0.1 nmol/l, 1 nmol/l, 10 nmol/l, 100 nmol/l and […]). To determine the antagonistic activity, the cells were treated with 0.1 nmol/l promegestone and additionally with ascending amounts of the particular test compound (0.01 nmol/l, 0.1 nmol/l, 1 nmol/l, 10 nmol/l, 100 nmol/l and […]). The activity of the reporter gene LUC (LUC=luciferase) was determined in the cell lysates and measured as RLU (relative light units). All measurements are reported as % efficacy and as EC50 and IC50 concentrations.
# [2] = molecular target: T2, human progesterone receptor B (Homo sapiens, UniProt P06401); experiment: Progesterone receptor-antagonistic action in stably transfected SK-N-MC cells, MMTV-LUC reporter (PR-B); format: cell-based; conditions: antagonistic potency vs 0.1 nmol/l promegestone, 24 hours
# T2 construct: expressed in transfected cells; host or cells: SK-N-MC human neuroblastoma cells, stably transfected with pRChPR-B-neo and pMMTV-LUC
# T2 sequence (P06401 1-933): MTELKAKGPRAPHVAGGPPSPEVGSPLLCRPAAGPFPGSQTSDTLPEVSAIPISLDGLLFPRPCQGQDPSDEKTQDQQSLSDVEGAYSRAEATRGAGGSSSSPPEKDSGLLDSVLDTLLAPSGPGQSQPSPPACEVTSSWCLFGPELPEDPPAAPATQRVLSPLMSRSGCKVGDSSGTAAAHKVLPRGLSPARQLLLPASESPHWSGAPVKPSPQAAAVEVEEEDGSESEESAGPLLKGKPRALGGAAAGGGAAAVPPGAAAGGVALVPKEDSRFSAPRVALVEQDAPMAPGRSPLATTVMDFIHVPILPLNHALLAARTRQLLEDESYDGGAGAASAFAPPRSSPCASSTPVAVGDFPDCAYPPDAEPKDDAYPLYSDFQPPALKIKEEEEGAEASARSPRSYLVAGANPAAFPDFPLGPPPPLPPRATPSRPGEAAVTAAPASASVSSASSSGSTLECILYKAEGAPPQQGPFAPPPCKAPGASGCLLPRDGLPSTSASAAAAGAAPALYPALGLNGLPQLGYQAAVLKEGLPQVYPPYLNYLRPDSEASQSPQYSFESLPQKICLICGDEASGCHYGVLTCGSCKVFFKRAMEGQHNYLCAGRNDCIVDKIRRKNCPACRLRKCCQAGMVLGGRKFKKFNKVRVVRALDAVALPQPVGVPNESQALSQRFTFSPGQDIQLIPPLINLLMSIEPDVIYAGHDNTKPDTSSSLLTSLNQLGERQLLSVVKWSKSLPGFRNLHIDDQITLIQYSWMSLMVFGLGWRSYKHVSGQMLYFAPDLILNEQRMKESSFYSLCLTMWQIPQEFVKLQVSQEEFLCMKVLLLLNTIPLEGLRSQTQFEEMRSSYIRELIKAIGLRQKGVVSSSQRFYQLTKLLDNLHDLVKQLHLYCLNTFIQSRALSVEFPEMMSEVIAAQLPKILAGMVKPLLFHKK
# Procedure: as §1, §2
SMILES,IC50 [1] [nM],IC50 [2] [nM]
"CC(C)(C)NC(=O)NCc1ccc([C@H]2C[C@@]3(C)[C@@H](CC[C@@]3(O)C(F)(F)C(F)(F)F)[C@@H]3CCC4=CC(=O)CCC4=C32)cc1 [Example 20, 1-tert-butyl-3-[4-((8S,11R,13S,14S,17S)-17-hydroxy-13-methyl-3-oxo-17-pentafluoroethyl-2,3,6,7,8,11,12,13,14,15,16,17-dodecahydro-1H-cyclopenta[a]phenanthren-11-yl)benzyl]urea]",0.7,1
"C[C@]12C[C@H](c3ccc(COC(=O)NCCC(=O)O)cc3)C3=C4CCC(=O)C=C4CC[C@H]3[C@@H]1CC[C@@]2(O)C(F)(F)C(F)(F)F [Example 55, 3-[4-((8S,11R,13S,14S,17S)-17-hydroxy-13-methyl-3-oxo-17-pentafluoroethyl-2,3,6,7,8,11,12,13,14,15,16,17-dodecahydro-1H-cyclopenta[a]phenanthren-11-yl)benzyloxycarbonylamino]propionic acid]",8,10
"CCOC(=O)c1ccc(NC(=O)NCc2ccc([C@H]3C[C@@]4(C)[C@@H](CC[C@@]4(O)C(F)(F)C(F)(F)F)[C@@H]4CCC5=CC(=O)CCC5=C43)cc2)cc1 [Example 36, 4-{3-[4-((8S,11R,13S,14S,17S)-17-hydroxy-13-methyl-3-oxo-17-pentafluoroethyl-2,3,6,7,8,11,12,13,14,15,16,17-dodecahydro-1H-cyclopenta[a]phenanthren-11-yl)benzyl]ureido}benzoic acid ethyl ester]",0.7,0.8
"CC1(c2cccc([C@H]3C[C@@]4(C)[C@@H](CC[C@@]4(O)C(F)(F)C(F)(F)F)[C@@H]4CCC5=CC(=O)CCC5=C43)c2)CC1 [Example 13, (8S,11R,13S,14S,17S)-17-hydroxy-13-methyl-11-[3-(1-methylcyclopropyl)phenyl]-17-pentafluoroethyl-1,2,6,7,8,11,12,13,14,15,16,17-dodecahydrocyclopenta[a]phenanthren-3-one]",4,7
"C[C@]12C[C@H](c3ccc(CNC(=O)Nc4ccc(Cl)cc4)cc3)C3=C4CCC(=O)C=C4CC[C@H]3[C@@H]1CC[C@@]2(O)C(F)(F)C(F)(F)F [Example 34, 1-(4-chlorophenyl)-3-[4-((8S,11R,13S,14S,17S)-17-hydroxy-13-methyl-3-oxo-17-pentafluoroethyl-2,3,6,7,8,11,12,13,14,15,16,17-dodecahydro-1H-cyclopenta[a]phenanthren-11-yl)benzyl]urea]",0.7,0.8
"C[C@]12C[C@H](c3ccc(C(CO)CO)cc3)C3=C4CCC(=O)C=C4CC[C@H]3[C@@H]1CC[C@@]2(O)C(F)(F)C(F)(F)F [Example 16, (8S,11R,13S,14S,17S)-17-hydroxy-11-[4-(2-hydroxy-1-hydroxymethylethyl)phenyl]-13-methyl-17-pentafluoroethyl-1,2,6,7,8,11,12,13,14,15,16,17-dodecahydrocyclopenta[a]phenanthren-3-one]",0.8,1

# Now those with a lower IC50 [1], led by results:
IC50 [1] [nM],IC50 [2] [nM],SMILES
0.01,0.05,"CC1(c2ccc([C@H]3C[C@@]4(C)[C@@H](CC[C@@]4(O)C(F)(F)C(F)(F)F)[C@@H]4CCC5=CC(=O)CCC5=C43)cc2)COC1 [Example 40, (8S,11R,13S,14S,17S)-17-hydroxy-13-methyl-11-[4-(3-methyloxetan-3-yl)phenyl]-17-pentafluoroethyl-1,2,6,7,8,11,12,13,14,15,16,17-dodecahydrocyclopenta[a]phenanthren-3-one]"
0.1,0.1,"CC(C)(C)NC(=O)OCc1ccc([C@H]2C[C@@]3(C)[C@@H](CC[C@@]3(O)C(F)(F)C(F)(F)F)[C@@H]3CCC4=CC(=O)CCC4=C32)cc1 [Example 44, tert-butylcarbamic acid 4-((8S,11R,13S,14S,17S)-17-hydroxy-13-methyl-3-oxo-17-pentafluoroethyl-2,3,6,7,8,11,12,13,14,15,16,17-dodecahydro-1H-cyclopenta[a]phenanthren-11-yl)benzyl ester]"
< 0.001,0.004,"C[C@]12C[C@H](c3ccc(C4CC4)cc3)C3=C4CCC(=O)C=C4CC[C@H]3[C@@H]1CC[C@@]2(O)C(F)(F)C(F)(F)F [Example 1, (8S,11R,13S,14S,17S)-11-(4-cyclopropylphenyl)-17-hydroxy-13-methyl-17-pentafluoroethyl-1,2,6,7,8,11,12,13,14,15,16,17-dodecahydrocyclopenta[a]phenanthren-3-one]"
0.1,0.1,"C=CCNC(=O)OCc1ccc([C@H]2C[C@@]3(C)[C@@H](CC[C@@]3(O)C(F)(F)C(F)(F)F)[C@@H]3CCC4=CC(=O)CCC4=C32)cc1 [Example 43, allylcarbamic acid 4-((8S,11R,13S,14S,17S)-17-hydroxy-13-methyl-3-oxo-17-pentafluoroethyl-2,3,6,7,8,11,12,13,14,15,16,17-dodecahydro-1H-cyclopenta[a]phenanthren-11-yl)benzyl ester]"
0.2,0.3,"C[C@]12C[C@H](c3ccc(COC(=O)NCc4ccccc4)cc3)C3=C4CCC(=O)C=C4CC[C@H]3[C@@H]1CC[C@@]2(O)C(F)(F)C(F)(F)F [Example 56, benzylcarbamic acid 4-((8S,11R,13S,14S,17S)-17-hydroxy-13-methyl-3-oxo-17-pentafluoroethyl-2,3,6,7,8,11,12,13,14,15,16,17-dodecahydro-1H-cyclopenta[a]phenanthren-11-yl)benzyl ester]"
0.01,0.01,"C[C@]12C[C@H](c3ccc(COC(=O)Nc4ccccc4)cc3)C3=C4CCC(=O)C=C4CC[C@H]3[C@@H]1CC[C@@]2(O)C(F)(F)C(F)(F)F [Example 46, phenylcarbamic acid 4-((8S,11R,13S,14S,17S)-17-hydroxy-13-methyl-3-oxo-17-pentafluoroethyl-2,3,6,7,8,11,12,13,14,15,16,17-dodecahydro-1H-cyclopenta[a]phenanthren-11-yl)benzyl ester]"
0.09,0.1,"C[C@]12C[C@H](c3ccc(COC(=O)Nc4ccc(F)cc4)cc3)C3=C4CCC(=O)C=C4CC[C@H]3[C@@H]1CC[C@@]2(O)C(F)(F)C(F)(F)F [Example 49, (4-fluorophenyl)carbamic acid 4-((8S,11R,13S,14S,17S)-17-hydroxy-13-methyl-3-oxo-17-pentafluoroethyl-2,3,6,7,8,11,12,13,14,15,16,17-dodecahydro-1H-cyclopenta[a]phenanthren-11-yl)benzyl ester]"
